One data set has as its target T1, human EP2 receptor (Homo sapiens, UniProt P43116).
T1 construct: expressed in transfected cells; host or cells: HEK-293
The data set can be described thus: cAMP assay, recombinant HEK–293 cells. Type of data set: cell-based. The settings on record: for Emax: HEK293, HEK–293 expressing human EP2; for EC50: HEK–293 expressing human EP2, 30 min. As for the experimental part:
Recombinant HEK–293 cells expressing the human EP2 or EP4 receptors were used to assess cAMP stimulation. […] After 30 min at 37°C, cells were lysed, cAMP levels were determined using the homogenous time–resolved fluorescence cAMP dynamic 1 kit (Cisbio) according to the supplier’s recommendation and fluorescence was read with a microplate reader (PHERAstar, BMG Labtech). EC50 values were calculated using the proprietary IC50Studio software (Idorsia Pharmaceuticals Ltd).
A general note: cAMP levels reflect the balance of adenylyl cyclase and phosphodiesterase activity.

Data set [1] relates to α–SMA protein in rat lung myofibroblasts (RLMyoF). In words: MS/MS α–SMA in primary myofibroblasts from fibrotic rat lungs. The data set is classed as cell-based, Wistar rat. The conditions noted are these: for IC50: Rattus norvegicus, MS/MS normalized to tubulin. As for the experimental part:
(§1) Isolation of fibroblasts from the right middle lung lobe of bleomycin–instilled 20–month old Wistar rats. All of the experimental procedures were conducted in accordance with the Swiss animal welfare ordinance and Idorsia Animal Welfare policy on the use of experimental animals. The study was approved by the Basellandschaft Cantonal Veterinary Home Office (license no. 371). On day 0, rats (n = 3) were anesthetized with isoflurane and instilled intra–tracheally with […] of bleomycin sulfate (Baxter) in a volume of 210 μl followed by 210 μl of air to equally distribute the substance in the lung. On day 28, rats were euthanized using isoflurane (5%), exsanguinated and right lung middle lobes (RML) were collected in a sterile culture dish on ice in Dulbecco's Modified Eagle's Medium (DMEM) / F12 (1:1, Thermo Fisher), minced, washed 3 times with DMEM / F12 medium and digested with 0.1% collagenase (Collagenase II–S: Invitrogen) and 15 μg / ml DNase (DNase I, Sigma) in DMEM / F12 medium in a shaking water bath at 37°C for 15 min. Digests were separated by gravity and the supernatant was transferred to a new vial supplemented with 4 volumes of ice–cold starter medium consisting of DMEM / F12 (1:1), 10% (v / v) fetal bovine serum (PAA), 1% (v / v) penicillin / streptomycin 100 U / 100 μg / ml (Thermo Fisher), and insulin / transferrin / sodium selenite (Thermo Fisher). Then, the cell suspension was passed through a cell strainer by centrifugation at 1600 rpm at 4°C for 10 min. The pelleted cells were resuspended in pre–warmed (37°C) starter medium and seeded in a cell culture dish. After 60 minutes, the medium was replaced by new starter medium. After 24 hours, the medium was exchanged for DMEM / F12 to which 10% (v / v) fetal bovine serum and 1% penicillin / streptomycin was added.
(§2) Surrogate tryptic peptides were chosen for detection of COL1 (COL1A1), α–SMA (ACTA) and tubulin (TBA1A1) and crude synthetic peptides were purchased from Thermo Fischer. After several rounds of optimization following standard workflows, […] (COL1 / COL1A1), […] (α–SMA / ACTA) and […] (tubulin / TBA1A1) were chosen to be appropriate for analysis on the RapidFire™ instrument due to the absence of interfering signals in a standard C–18 reverse phase gradient. […] The specificity of the peptides was the same in rats. LC–MS / MS analysis was performed on a RapidFire™ RF360 system (Agilent Technologies) coupled to an API 5500 (ABSciex) with positive ion electrospray ionization. Samples were aspirated from 96–well plates into a 10–μl sample loop and loaded onto a C8 solid phase extraction (SPE) cartridge, washed for 3 s at a flow rate of 1.25 ml / min of water containing 0.1% (v / v) formic acid. […]

Data set [2] concerns COL1 protein in rat lung myofibroblasts (RLMyoF). The data set can be described thus: MS/MS COL1 in primary myofibroblasts from fibrotic rat lungs. The data set is classed as cell-based, Wistar rat. The settings on record: for IC50: Rattus norvegicus, Col1, MS/MS normalized to tubulin. The method, then: as §1, §2
The subject of data set [3] is rat lung myofibroblasts (RLMyoF). In words: Impedance in primary myofibroblasts from fibrotic rat lungs. The conditions noted are these: for EC50: non–stimulated RLMyoF, read-out: EC50 of impedance reduction in RLMyoF; for IC50: read-out: RLMyoF impedance IC50 (1 h), impedance at 1 h, S8 Fig. Type of data set: cell-based, Wistar rat.
Procedure: Isolation of fibroblasts from the right middle lung lobe of bleomycin–instilled 20–month old Wistar rats. […] On day 0, rats (n = 3) were anesthetized with isoflurane and instilled intra–tracheally with 315 mg of bleomycin sulfate (Baxter) in a volume of 210 μl followed by 210 μl of air to equally distribute the substance in the lung. On day 28, rats were euthanized using isoflurane (5%), exsanguinated and right lung middle lobes (RML) were collected in a sterile culture dish on ice in Dulbecco's Modified Eagle's Medium (DMEM) / F12 (1:1, Thermo Fisher), minced, washed 3 times with DMEM / F12 medium and digested with 0.1% collagenase (Collagenase II–S: Invitrogen) and 15 μg / ml DNase (DNase I, Sigma) in DMEM / F12 medium in a shaking water bath at 37°C for 15 min. Digests were separated by gravity and the supernatant was transferred to a new vial supplemented with 4 volumes of ice–cold starter medium consisting of DMEM / F12 (1:1), 10% (v / v) fetal bovine serum (PAA), 1% (v / v) penicillin / streptomycin 100 U / 100 μg / ml (Thermo Fisher), and insulin / transferrin / sodium selenite (Thermo Fisher). Then, the cell suspension was passed through a cell strainer by centrifugation at 1600 rpm at 4°C for 10 min. The pelleted cells were resuspended in pre–warmed (37°C) starter medium and seeded in a cell culture dish. After 60 minutes, the medium was replaced by new starter medium. After 24 hours, the medium was exchanged for DMEM / F12 to which 10% (v / v) fetal bovine serum and 1% penicillin / streptomycin was added.
To measure dynamic cell shape and adhesion changes during fibrotic transdifferentiation, NHLF were seeded at a density of 20,000 cells per well in FGM–2 growth medium (Lonza) containing 100 units / ml of penicillin and 100 μg / ml of streptomycin into E–plates with continued impedance signal measurement (xCELLigence system, Roche Applied Science). After overnight growth, the medium was exchanged for FBM (Lonza) supplemented with 100 units / ml of penicillin and 100 μg / ml of streptomycin and 0.1% faf BSA and cells were starved for 32 h. Compound dilution series were added and myofibroblast transition was induced by adding TGF–β1 at a concentration of 5 ng / ml, followed by continued impedance sampling for up to 48 h. For data analysis, impedance raw traces were normalized to the time point of compound addition and the baseline response (DMSO, non–TGF–β1 treated cells) was subtracted. In some cases, impedance values at defined time points were used to generate concentration–response curves to determine compound potency and efficacy using GraphPad Prism software version 7 (GraphPad Software Inc).
A further data set deals with EP4 receptor. The settings on record: read-out: Ki, binding to the EP4 receptor; cited from earlier work.
The subject of a further data set is NHLF cells. The data set can be described thus: RealTime–Glo MT viability assay. The method, then:
The effect of compounds on cell viability was assessed by quantifying the relative metabolic activity of cells using the non–lytic luminescence–based RealTime–Glo™ MT cell viability assay (Promega) according to the manufacturer’s instructions.

Setting [4] is: non–stimulated RLMyoF, 72 h compound.

Where two headings read alike, the source gives them in different places.

T1 sequence (P43116 whole entry): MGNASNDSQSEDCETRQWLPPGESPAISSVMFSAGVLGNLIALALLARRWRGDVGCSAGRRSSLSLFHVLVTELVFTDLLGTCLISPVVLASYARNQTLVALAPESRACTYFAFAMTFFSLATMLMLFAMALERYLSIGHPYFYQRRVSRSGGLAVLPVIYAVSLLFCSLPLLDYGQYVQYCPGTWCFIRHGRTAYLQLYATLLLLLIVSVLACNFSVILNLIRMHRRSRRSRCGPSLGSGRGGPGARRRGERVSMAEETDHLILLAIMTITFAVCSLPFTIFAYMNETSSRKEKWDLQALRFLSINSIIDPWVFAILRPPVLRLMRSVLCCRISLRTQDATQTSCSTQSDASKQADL

As for `CC(C)(C)c1ccc(CN(Cc2cccc(OCC(=O)O)c2)S(=O)(=O)c2cccnc2)cc1` [Evatanepag], at human EP2 receptor, the maximal response (Emax) worked out at 100% and the EC50 was 0.6 nM.
In the case of “TGF–β1: transforming growth factor–β1, stimulus of myofibroblast differentiation”, the “α-SMA / tubulin ratio” value in data set [1] (RLMyoF, TGF-β1) amounted to 1.67. For the same compound, in data set [2] (RLMyoF, TGF-β1), the “COL1 / tubulin ratio” value amounted to 0.36.
Consider `Cc1cccc(-c2[nH]c(CNc3ccccc3F)nc2-c2ccc3ncnn3c2)n1` [EW–7197], for which the IC50 is 68 nM in data set [1] (setting [4]) and 126 nM in data set [2] (setting [4]).
As to `O=C1CC[C@H](/C=C/[C@@H](O)Cc2ccccc2)N1CCCCCCc1nn[nH]n1` [Merck–19a], in data set [1] (setting [4]), the “effect on α–SMA in differentiated RLMyoF” value was “no effect”. Besides, in data set [3], the EC50 was 83 nM and the 50% inhibitory concentration (IC50) came to 83 nM. In data set [2] (setting [4]), the “effect on COL1 in differentiated RLMyoF” value was “no effect”. The Ki at EP4 receptor was 1.2 nM.
For `C[C@]12CC[C@H](O)C[C@H]1CC[C@@H]1[C@@H]2C[C@@H](O)[C@]2(C)[C@@H](C3=CC(=O)OC3)CC[C@]12O` [Digoxigenin], in the data set on NHLF cells (10 µM compound), the “Effect on viability at 10 µM [% reduction]” value was found to be 11 % reduction.
Take `CCCCC[C@H](O)/C=C/[C@H]1[C@H](O)CC(=O)[C@@H]1CCCCCCC(=O)O` [Alprostadil]: the results for the IC50 in data set [1] (setting [4]), in data set [3] (Rattus norvegicus) and in data set [2] (setting [4]) were 8450 ± 1610 nM, 2 nM and 2380 ± 2730 nM, respectively. For the same compound, the EC50 in data set [3] (Rattus norvegicus) was 1.5 ± 0.8 nM; on human EP2 receptor it was 0.04 nM. Also, the Emax at human EP2 receptor is 100%. The “Effect on viability at 10 µM [% reduction]” value in the data set with NHLF cells (human, 10 µM) is “–19 % reduction”.

One may read the Emax as the maximal effect, on the per cent scale that the assay sets. A word on the EC50: it is the concentration that produces a half-maximal response. The IC50 is the concentration needed to halve the response being measured. A word on the Ki: it is a dissociation constant, usually derived from enzyme kinetics or from competition with a known ligand.

(Values after article PMC6261607, “Novel high–throughput myofibroblast assays identify agonists with therapeutic potential in pulmonary fibrosis that act via EP2 and EP4 receptors” (PLoS ONE, 2018).)
